Measured values published in publication PMC9839384 (Slas Discovery, 2023).

Key:
SARS-CoV-2 3CLpro = SARS-CoV-2 3CLpro (Severe acute respiratory syndrome coronavirus 2, UniProt P0DTD1); assay type: cell-based
[1] = tested on: SARS-CoV-2 3CLpro-HA, RLuc, FLuc in HEK293T cells; assay type: cell-based; details: actin as control
3CLpro = 3CLpro (Severe acute respiratory syndrome coronavirus 2, UniProt P0DTD1); assay: 3CLpro biochemical inhibition assay; set-up: species or system SARS-CoV-2
293T cells = details: initial screening

CCN1CCN(Cc2ccc(NC(=O)Nc3ccc(Oc4cc(NC)ncn4)cc3)cc2C(F)(F)F)CC1 [AST-487]
inhibition against viral proteases, in words (SARS-CoV-2 3CLpro): some selective SARS 3CLpro inhibition but only at the highest concentration tested

CC(C)C[C@H](NC(=O)[C@H](CCc1ccccc1)NC(=O)CN1CCOCC1)C(=O)N[C@@H](Cc1ccccc1)C(=O)N[C@@H](CC(C)C)C(=O)[C@@]1(C)CO1 [Carfilzomib]
inhibition against viral proteases, in words (SARS-CoV-2 3CLpro): inhibited all the proteases tested | protein expression by western blot [1]: decrease in all exogenously expressed constructs

O=C(/C=C/c1ccc(Cl)c(Cl)c1)Nc1ccccc1C(=O)O [SR-32229]
potency in the enzymatic assay, in words (3CLpro): low-µM affinity | Emax (3CLpro; Supplementary Fig. 2, panel D): ~100 % of tranilast

COc1ccc(/C=C/C(=O)Nc2ccccc2C(=O)O)cc1OC [Tranilast, (E)-2-(3-(3,4-dimethoxyphenyl)acrylamido)benzoic acid]
cytotoxicity, in words (293T cells): nontoxic | inhibition against viral proteases, in words (SARS-CoV-2 3CLpro): SARS 3CLpro specific inhibition
